Experiment [1] deals with Peroxisome proliferator-activated receptor gamma/Nuclear receptor coactivator 2 (Homo sapiens, UniProt P37231). In kind it is functional.
Experiment [2] concerns the target Peroxisome proliferator-activated receptor gamma/Nuclear receptor coactivator 1 (Homo sapiens, UniProt P37231). In kind it is functional.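 Also: agonist potency as compounds enhance coactivator SRC-1 recruitment to PPARgamma.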
Experiment [3] deals with Peroxisome proliferator-activated receptor gamma/Nuclear receptor coactivator 3 (Homo sapiens, UniProt P37231). In kind it is functional.
Experiment [4] relates to Vero. The experiment in a line: mammalian cell viability reduction – secondary assay, cytotoxicity control for West Nile virus antiviral project, dose response (AID 1650). In kind it is functional. The note with it: Chlorocebus sabaeus.
The target in experiment [5] is Melanin-concentrating hormone receptor 1 (Homo sapiens, UniProt Q99705). Briefly: Late-stage fluorescence-based counterscreen for antagonists of the G-protein coupled receptor 7 (GPR7): cell-based dose response assay to identify antagonists of the melanin-concentrating hormone receptor 1 (MCHR1). [Related pubchem assays (depositor defined):AID1861, AID1880, AID1952, AID2148, AID2251, AID2257, AID485339]. In kind it is functional. In general terms: Counterscreens check selectivity or assay interference.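 Also: stimulated with 30 nM MCH peptide agonist.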

Experiment [6] deals with Eukaryotic translation initiation factor 4E (Mus musculus, UniProt P63073). Briefly: blockers of eIF4G binding by eIF4E – biochemical, TR-FRET, dose response (AID 855).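 Also: potency for disrupting eIF4E binding to eIF4GI seen as loss of FRET.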 In kind it is functional. (In general: TR-FRET usually uses a lanthanide donor and a delayed reading to cut background.)
Experiment [7] deals with T1, Acyl-homoserine lactone acylase PvdQ (Pseudomonas aeruginosa (strain LESB58), UniProt Q9I194).
T1 sequence (Q9I194 whole entry): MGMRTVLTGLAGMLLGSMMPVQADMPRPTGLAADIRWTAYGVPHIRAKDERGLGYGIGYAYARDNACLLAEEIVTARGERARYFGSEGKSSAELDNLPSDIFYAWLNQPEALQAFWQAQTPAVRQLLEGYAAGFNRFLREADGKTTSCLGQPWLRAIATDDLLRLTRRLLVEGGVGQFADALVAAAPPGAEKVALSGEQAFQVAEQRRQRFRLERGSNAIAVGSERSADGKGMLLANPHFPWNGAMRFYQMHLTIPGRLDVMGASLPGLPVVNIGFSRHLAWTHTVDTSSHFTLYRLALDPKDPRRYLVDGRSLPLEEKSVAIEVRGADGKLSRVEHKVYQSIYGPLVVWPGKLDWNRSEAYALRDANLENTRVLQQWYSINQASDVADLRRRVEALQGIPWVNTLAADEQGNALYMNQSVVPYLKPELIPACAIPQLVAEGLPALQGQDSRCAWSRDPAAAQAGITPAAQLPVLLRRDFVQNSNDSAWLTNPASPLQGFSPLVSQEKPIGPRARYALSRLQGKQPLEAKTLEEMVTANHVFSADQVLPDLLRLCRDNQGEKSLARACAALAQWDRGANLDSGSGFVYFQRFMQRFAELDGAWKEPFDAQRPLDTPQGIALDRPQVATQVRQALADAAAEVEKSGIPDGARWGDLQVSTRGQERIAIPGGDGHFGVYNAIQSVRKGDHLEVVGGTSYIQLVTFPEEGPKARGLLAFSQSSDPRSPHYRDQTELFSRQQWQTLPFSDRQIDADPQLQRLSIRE
Briefly: PvdQ acylase enzyme activity blockers – biochemical, fluorescence, plate reader and imaging, cherry-picks, dose response (AID 493231).

For experiment [8], the target named is T2, Rac GTPase-activating protein 1 (Homo sapiens, UniProt Q9H0H5).
T2 sequence (Q9H0H5 whole entry): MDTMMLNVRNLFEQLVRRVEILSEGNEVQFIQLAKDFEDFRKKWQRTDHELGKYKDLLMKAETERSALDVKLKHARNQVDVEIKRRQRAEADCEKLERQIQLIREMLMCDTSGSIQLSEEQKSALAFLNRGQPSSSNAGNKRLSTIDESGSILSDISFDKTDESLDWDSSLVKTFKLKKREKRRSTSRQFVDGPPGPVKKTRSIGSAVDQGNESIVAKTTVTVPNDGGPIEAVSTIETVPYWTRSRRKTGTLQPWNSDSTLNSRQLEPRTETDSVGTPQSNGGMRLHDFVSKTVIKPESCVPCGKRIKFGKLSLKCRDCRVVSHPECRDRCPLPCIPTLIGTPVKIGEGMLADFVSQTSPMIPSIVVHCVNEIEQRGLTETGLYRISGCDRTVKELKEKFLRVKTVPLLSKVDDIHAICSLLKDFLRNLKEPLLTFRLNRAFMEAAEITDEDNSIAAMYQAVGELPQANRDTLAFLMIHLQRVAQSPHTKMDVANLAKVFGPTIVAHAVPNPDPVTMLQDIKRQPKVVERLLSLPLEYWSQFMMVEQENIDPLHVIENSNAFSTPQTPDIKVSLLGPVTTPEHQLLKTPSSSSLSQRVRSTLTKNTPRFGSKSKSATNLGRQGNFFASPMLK
The experiment in a line: blockers of MgcRacGAP-driven Rac1 GTP hydrolysis – biochemical, ADP Hunter fluorescence, primary and confirmatory, confirmation (AID 624330). In kind it is functional.

Experiment [9] addresses DNA dC->dU-editing enzyme APOBEC-3G (Homo sapiens, UniProt Q9HC16). Briefly: Dose Response confirmation of small molecule APOBEC3G DNA Deaminase Inhibitors via a fluorescence-based single-stranded DNA deaminase assay. [Related pubchem assays (depositor defined):AID493012, AID493028]. In kind it is functional.
The target in experiment [10] is T3, Voltage-gated N-type calcium channel alpha-1B subunit/Amyloid beta A4 precursor protein-binding family A member 1 (Homo sapiens, UniProt Q00975+Q02410). Briefly: disruptors of Mint-PDZ/N-type channel peptide interaction – biochemical, HTRF, set 2, SAR follow-up (AID 434980). In kind it is functional.
The target in experiment [11] is T3, Voltage-gated N-type calcium channel alpha-1B subunit/Amyloid beta A4 precursor protein-binding family A member 1. Briefly: disruptors of Mint-PDZ/N-type channel peptide interaction – biochemical, HTRF, SAR follow-up (AID 2489). In kind it is functional.
Experiment [12] can be described thus: NIH-3T3 fibroblast cytotoxicity, dose response, cytotoxicity control, cell-based, fluorescence, Alamar Blue, secondary assay (AID 2327).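 Also: NIH-3T3 mouse fibroblasts cultured with fluconazole at 8 µg/mL.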 In kind it is functional. For orientation: Alamar Blue is a resazurin reagent that responds to reducing activity.
Experiment [13] deals with T3, Voltage-gated N-type calcium channel alpha-1B subunit/Amyloid beta A4 precursor protein-binding family A member 1. In kind it is protein assay.
A short description of experiment [14]: fluconazole-exposed Candida albicans growth modulators – fluorescence, retest, confirmation (AID 2467). In kind it is functional, cell-based.
Experiment [15] concerns the target T3, Voltage-gated N-type calcium channel alpha-1B subunit/Amyloid beta A4 precursor protein-binding family A member 1. In kind it is protein assay. The source holds these as a separate data set.
Experiment [16] concerns the target Induced myeloid leukemia cell differentiation protein Mcl-1 (Homo sapiens, UniProt Q07820). In kind it is functional.
Experiment [17] deals with T4, Replicative DNA helicase DnaB (Mycobacterium tuberculosis, UniProt P9WMR3).
T4 sequence (P9WMR3 whole entry): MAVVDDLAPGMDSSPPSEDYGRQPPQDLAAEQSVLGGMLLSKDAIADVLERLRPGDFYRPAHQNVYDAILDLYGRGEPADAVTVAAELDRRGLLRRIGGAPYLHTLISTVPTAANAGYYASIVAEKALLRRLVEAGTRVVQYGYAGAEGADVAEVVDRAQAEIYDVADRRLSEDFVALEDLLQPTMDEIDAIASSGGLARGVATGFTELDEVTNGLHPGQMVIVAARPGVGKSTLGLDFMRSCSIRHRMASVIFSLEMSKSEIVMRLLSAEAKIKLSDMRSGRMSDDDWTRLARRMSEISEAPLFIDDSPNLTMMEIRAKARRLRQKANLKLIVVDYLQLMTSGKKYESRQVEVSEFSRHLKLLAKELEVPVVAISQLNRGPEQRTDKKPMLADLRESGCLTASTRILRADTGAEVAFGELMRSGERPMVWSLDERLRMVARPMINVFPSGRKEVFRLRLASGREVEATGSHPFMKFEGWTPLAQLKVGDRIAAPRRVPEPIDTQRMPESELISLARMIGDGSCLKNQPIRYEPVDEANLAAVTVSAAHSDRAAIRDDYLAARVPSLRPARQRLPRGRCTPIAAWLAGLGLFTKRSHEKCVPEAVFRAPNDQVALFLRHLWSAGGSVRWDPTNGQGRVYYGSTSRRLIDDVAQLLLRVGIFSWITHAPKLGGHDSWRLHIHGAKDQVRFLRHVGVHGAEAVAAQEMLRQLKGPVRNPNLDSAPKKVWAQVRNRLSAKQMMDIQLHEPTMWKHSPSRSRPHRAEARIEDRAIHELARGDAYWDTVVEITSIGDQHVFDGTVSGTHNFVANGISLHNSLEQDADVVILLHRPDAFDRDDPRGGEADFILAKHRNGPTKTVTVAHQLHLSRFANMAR
Briefly: DnaB intein splicing inhibitors, dose response, biochemical, cell-free fluorescence (AID 449749). In kind it is functional.

For experiment [18], the target named is T5, Protein RecA (Mycobacterium tuberculosis, UniProt P9WHJ3).
T5 sequence (P9WHJ3 whole entry): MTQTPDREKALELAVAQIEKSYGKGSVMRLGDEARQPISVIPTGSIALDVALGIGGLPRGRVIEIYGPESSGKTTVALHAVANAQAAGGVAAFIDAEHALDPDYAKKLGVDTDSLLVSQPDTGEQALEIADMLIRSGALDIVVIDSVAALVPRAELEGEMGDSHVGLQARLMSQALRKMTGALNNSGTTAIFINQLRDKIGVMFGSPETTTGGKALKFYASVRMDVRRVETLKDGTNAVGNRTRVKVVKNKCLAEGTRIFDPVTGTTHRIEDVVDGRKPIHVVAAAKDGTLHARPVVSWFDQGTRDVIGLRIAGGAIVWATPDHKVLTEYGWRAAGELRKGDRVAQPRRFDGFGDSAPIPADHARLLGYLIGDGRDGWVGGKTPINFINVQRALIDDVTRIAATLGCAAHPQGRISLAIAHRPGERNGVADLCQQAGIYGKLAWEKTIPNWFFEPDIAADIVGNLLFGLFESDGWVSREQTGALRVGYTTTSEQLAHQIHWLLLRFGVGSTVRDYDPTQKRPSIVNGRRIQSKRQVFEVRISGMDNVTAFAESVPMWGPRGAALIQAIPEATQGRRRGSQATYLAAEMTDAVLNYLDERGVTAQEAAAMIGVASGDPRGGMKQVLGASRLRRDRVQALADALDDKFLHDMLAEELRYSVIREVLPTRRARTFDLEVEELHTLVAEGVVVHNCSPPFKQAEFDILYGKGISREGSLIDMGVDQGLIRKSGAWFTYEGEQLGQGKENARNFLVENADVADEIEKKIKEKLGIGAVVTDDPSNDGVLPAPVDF
The experiment in a line: Fluorescence Cell-Free Homogeneous Dose Retest to Identify Inhibitors of RecA-Intein Splicing Activity. [Related pubchem assays (depositor defined):AID2097, AID2223, AID489010, AID492950]. In kind it is functional.

The source made the active and inactive calls.

T3 sequence (Q00975 whole entry): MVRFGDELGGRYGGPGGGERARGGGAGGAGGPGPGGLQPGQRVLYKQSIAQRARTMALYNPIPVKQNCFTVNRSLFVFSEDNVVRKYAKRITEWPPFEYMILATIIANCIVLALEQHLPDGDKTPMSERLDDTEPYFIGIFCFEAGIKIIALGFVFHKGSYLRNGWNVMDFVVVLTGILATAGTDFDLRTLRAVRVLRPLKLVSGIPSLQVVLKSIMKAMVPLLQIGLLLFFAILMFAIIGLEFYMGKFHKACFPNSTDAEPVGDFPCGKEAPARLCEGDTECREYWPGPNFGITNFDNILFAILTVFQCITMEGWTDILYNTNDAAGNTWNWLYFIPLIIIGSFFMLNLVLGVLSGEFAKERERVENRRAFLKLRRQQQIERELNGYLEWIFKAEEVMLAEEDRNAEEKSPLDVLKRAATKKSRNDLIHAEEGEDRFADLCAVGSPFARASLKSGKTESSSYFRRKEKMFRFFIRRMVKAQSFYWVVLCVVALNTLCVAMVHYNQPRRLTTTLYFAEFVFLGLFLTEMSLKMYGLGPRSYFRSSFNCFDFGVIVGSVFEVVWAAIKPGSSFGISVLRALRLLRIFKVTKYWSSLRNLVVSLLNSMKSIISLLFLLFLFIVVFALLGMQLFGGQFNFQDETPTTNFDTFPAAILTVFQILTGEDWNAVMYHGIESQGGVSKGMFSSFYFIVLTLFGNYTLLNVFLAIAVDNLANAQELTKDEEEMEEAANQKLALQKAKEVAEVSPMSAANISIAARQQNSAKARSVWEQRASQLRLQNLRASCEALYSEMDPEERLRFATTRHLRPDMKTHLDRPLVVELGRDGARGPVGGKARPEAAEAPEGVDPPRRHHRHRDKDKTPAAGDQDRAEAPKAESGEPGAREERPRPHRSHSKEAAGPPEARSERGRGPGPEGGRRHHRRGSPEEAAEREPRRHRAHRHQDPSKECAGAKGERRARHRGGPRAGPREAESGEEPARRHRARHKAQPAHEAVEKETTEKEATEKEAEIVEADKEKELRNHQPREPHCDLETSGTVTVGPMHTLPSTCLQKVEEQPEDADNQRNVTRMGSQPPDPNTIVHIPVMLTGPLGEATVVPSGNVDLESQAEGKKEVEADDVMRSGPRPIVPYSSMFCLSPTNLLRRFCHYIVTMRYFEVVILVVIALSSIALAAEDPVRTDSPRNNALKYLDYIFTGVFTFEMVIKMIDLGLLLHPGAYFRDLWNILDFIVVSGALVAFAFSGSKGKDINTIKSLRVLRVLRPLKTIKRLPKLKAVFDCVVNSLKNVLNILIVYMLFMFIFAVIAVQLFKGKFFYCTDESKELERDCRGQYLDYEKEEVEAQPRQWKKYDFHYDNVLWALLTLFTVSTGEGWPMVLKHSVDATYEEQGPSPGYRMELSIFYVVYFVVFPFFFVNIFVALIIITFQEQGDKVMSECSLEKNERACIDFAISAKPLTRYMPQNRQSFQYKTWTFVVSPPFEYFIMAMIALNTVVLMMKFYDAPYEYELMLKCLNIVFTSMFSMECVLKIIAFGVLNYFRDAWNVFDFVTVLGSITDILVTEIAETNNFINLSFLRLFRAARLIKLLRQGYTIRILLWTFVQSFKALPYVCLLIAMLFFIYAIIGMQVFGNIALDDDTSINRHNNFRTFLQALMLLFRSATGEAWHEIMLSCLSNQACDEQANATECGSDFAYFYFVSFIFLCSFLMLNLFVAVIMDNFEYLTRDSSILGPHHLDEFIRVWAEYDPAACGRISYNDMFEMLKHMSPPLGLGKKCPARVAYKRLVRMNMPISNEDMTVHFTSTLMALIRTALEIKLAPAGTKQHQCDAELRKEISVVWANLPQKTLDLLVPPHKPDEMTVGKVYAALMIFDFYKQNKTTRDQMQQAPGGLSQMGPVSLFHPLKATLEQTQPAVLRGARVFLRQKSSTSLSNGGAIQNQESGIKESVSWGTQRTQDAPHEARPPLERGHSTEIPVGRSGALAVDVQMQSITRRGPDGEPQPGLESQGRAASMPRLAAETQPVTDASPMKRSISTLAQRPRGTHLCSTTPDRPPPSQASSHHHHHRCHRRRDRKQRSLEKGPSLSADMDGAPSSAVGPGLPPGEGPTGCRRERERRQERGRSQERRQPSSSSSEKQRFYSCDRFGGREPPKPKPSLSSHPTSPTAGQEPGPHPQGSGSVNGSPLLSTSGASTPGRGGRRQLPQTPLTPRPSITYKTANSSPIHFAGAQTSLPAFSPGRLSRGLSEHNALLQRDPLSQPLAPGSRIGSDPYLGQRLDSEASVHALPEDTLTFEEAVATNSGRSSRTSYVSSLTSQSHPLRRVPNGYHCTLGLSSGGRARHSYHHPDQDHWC
T3 sequence (Q02410 whole entry): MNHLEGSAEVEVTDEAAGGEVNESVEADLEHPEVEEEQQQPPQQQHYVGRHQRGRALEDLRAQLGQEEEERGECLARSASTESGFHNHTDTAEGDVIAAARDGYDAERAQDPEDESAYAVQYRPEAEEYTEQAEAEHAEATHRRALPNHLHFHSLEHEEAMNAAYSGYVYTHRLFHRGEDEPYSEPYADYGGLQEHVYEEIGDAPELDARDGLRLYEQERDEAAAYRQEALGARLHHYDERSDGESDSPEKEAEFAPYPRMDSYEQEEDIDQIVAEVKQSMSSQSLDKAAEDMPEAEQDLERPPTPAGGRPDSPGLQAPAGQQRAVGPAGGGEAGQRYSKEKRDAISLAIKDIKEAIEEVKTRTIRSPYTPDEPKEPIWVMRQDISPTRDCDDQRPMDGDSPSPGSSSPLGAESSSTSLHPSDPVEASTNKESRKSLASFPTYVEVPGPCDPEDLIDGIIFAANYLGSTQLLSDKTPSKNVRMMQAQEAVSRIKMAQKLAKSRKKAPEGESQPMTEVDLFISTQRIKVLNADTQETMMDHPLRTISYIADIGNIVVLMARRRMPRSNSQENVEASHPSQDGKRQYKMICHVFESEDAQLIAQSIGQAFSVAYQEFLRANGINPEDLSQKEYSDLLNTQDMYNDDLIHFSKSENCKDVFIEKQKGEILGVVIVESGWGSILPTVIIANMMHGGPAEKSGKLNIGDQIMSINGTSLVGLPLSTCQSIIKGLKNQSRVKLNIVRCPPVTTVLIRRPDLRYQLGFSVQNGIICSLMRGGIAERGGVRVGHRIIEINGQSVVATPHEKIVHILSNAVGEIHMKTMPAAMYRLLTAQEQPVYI
Chain of Melanin-concentrating hormone receptor 1 (Q99705 whole entry): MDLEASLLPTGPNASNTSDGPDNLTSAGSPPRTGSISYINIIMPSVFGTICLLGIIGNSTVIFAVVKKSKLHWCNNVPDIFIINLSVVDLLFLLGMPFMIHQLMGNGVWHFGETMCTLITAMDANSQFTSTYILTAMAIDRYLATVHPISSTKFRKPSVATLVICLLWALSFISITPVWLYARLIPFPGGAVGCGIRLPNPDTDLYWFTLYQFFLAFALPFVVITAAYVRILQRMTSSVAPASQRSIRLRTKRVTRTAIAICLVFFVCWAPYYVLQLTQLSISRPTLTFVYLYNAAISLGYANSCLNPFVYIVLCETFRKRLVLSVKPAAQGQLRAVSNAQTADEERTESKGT
Chain of Eukaryotic translation initiation factor 4E (P63073 whole entry): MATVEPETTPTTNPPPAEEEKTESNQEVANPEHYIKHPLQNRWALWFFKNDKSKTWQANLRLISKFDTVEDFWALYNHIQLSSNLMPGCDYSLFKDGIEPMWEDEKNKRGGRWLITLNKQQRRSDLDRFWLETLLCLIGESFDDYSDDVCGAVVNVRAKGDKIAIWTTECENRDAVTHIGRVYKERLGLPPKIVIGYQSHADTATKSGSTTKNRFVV
Chain of DNA dC->dU-editing enzyme APOBEC-3G (Q9HC16 whole entry): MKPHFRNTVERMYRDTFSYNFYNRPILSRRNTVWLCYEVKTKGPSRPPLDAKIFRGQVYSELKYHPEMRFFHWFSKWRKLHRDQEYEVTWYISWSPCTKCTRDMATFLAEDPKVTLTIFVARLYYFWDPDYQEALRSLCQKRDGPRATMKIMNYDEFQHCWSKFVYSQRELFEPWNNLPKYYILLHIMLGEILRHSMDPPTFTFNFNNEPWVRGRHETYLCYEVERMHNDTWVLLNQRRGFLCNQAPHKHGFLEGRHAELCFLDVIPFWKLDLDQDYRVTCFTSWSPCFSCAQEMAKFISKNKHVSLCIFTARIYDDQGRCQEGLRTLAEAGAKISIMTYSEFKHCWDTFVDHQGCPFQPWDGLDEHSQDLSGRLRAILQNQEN
Chain of Induced myeloid leukemia cell differentiation protein Mcl-1 (Q07820 whole entry): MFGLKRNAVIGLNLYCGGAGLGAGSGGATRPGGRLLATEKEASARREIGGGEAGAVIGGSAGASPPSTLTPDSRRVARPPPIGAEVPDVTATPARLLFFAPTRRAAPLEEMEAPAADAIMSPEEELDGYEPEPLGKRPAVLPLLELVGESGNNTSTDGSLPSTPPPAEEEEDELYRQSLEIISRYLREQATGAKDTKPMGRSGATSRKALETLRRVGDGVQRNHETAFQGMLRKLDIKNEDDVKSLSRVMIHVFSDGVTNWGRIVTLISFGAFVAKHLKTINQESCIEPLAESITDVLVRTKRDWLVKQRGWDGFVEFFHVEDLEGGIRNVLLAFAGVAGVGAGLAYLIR

Broadly, the EC50 is the concentration giving half of the maximal effect. For orientation: CC50 means the concentration at which the toxic effect on the cells reaches its halfway point. `COc1ccc(NC(=O)CSc2ccc3c4c(cccc24)C(=O)c2ccccc2-3)cc1`: the EC50 in experiment [1], in [2] and in experiment [3] was > 79.4 µM (not active) throughout. The CC50 in experiment [4] is 71.7 µM (active).
The IC50 is the point on the concentration scale where inhibition reaches its midpoint. In the case of `COc1ccc(Oc2c(C#N)cnn(-c3ccc(C(C)C)cc3)c2=O)cc1`, in experiment [5], the IC50 is 7.5 µM (active).
In the case of `O=C(Nc1cccnc1)c1cc2c(ccc3ccccc32)o1`, the IC50 in [6] was > 64 µM (inactive).
Broadly, the AC50 is the concentration at which the activity in the assay is half-maximal. Consider `Cc1cc(NC(=O)c2ccc([N+](=O)[O-])cc2Cl)no1`, for which, in experiment [7], the AC50 was > 100 µM (inactive).
Same read-out and setting: as for `O=C(NC1CCCCC1)c1cc(Cl)ccc1[N+](=O)[O-]`, the figure is 69.3 µM (active).
With `O=C1c2ccccc2C(=O)C1c1ccc(O)cc1`, the EC50 in [1], in experiment [2] and in experiment [3] was > 79.4 µM (not active) each time. In addition, the IC50 in [8] was 172 µM (active).
For the compound `O=S(=O)(Cc1ccccc1)N=Nc1c(O)[nH]c2ccc(Br)cc12`, the IC50 in experiment [9] was 44.3 µM (active).
As to `O=CN(c1ccccc1)c1ccc2ccccc2c1`, the AC50 in [7] was 2.68 µM (active).
`O=C(c1cc(-c2ccco2)nc2ccccc12)N1CCCC(c2ccccc2)C1` (stereo unspecified): the IC50 in [10] and in [11] was > 56.8 µM (inactive) in each case.
`CCCc1ccc(/C=C2\C(=O)c3ccccc3C(O)=C2C(=O)OCC)cc1`: the results for the EC50 in experiment [12], in [14] and in experiment [18] were 56.4 µM (inconclusive), > 38 µM (not active) and 8.95 µM (active), respectively. Moreover, the IC50 in [13] is 9.62 µM (active); in experiment [15], 5.12 µM (active); in experiment [16] it was 2.32 µM (not active); in experiment [10], 5.7 µM (active); in experiment [11], 7.19 µM (active). The AC50 in [17] is 5.54 µM (active).
Take `COc1ccc(Oc2c(Cl)cnn(-c3cccc(OC)c3)c2=O)cc1`: the IC50 in experiment [5] was 3.4 µM (active).
